In US10251884B2, “Treatment of cancer and benign proliferative disorders” (The University of Manchester, priority 2013, dated 2019):
Marks after values point to notes of the source that are not given here.

Legend:
[1] = cited from earlier work
HeLa cells = assay: Apoptosis by V450 Annexin V / propidium iodide flow cytometry; type: cell-based
From the text: Staining with V450 Annexin V (BD Biosciences) was used to analyse the percentage of cells within a population that are actively undergoing apoptosis. Propidium Iodide (PI) is a standard DNA-staining flow cytometric viability probe and is used to distinguish viable from nonviable cells. Cells that stain positive for V450 Annexin V and negative for PI are undergoing apoptosis. Cells that stain positive for both V450 Annexin V and PI are either in the end stages of apoptosis, are undergoing necrosis, or are already dead. Cells that stain negative for both V450 Annexin V and PI are alive and not undergoing measurable apoptosis.
For this reason these cells were chosen to evaluate the effects of these compounds on cell death. A 2 ml aliquot of growth medium containing 20,000 cells was seeded into each well of a 6 well plate. […] The growth medium was removed and retained and the cells washed with PBS followed by Incubation with 1 ml of Accutase (Life Technologies, Paisley, UK, Catalog Number A11105-01) per well for 15 mins. The original growth medium was then added back to neutralise the Accutase, and this centrifuged at 1,200 rpm for 5 mins to pellet the cells and this repeated twice with cold PBS. The cell pellet was finally re-suspended in 1× binding buffer (10×=0.1 M Hepes (pH 7.4), 1.4 M NaCl, 25 mM CaCl2) at a concentration of 10^6 cell/ml. A 100 μl aliquot containing 10^5 cells was removed and placed in a 5 ml culture tube and 5 μl of V450 Annexin V added plus 10 μl PI (50 μg/ml) added. The cells were gently mixed and incubated at room temperature for 15 min in the dark then 400 μl of 1× binding buffer was added prior to being analysed by flow cytometry using a Cyan ADP instrument (Beckman Coulter) and Summit software within one hour of the above procedure. The Annexin fluorochrome was excited using a 405 nm laser and the emission measured using a 450/50 nm bandpass filter. The PI was excited using a 488 nm laser and the emission detected using a 613/20 nm bandpass filter. The data was gated to select single cells using a plot of forward scatter against pulse width, and to exclude debris using forward scatter plotted against side scatter. All cytometry assays shown were the result of three separate cultures and intra-assay variability was also assessed by repeating the same drug treatment assay (1:1 Lop/Rit) three times. Unstained cells and cells stained separately with either V450 Annexin V or PI were used as controls to optimise compensation and gating of the cytometer.

SiHa cells = assay: CellTitre 96 AQ colorimetric cell growth assay; type: cell-based; conditions: 5 μM, 0-72 hours
Protocol: SiHa cells were grown in RPMI plus 10% FBS and HeLa in DMEM plus 10% FBS. These were seeded at 2000 cells/well for HeLa and 5000 cells/well for SiHa in triplicate into standard tissue culture grade 96 well plates and incubated overnight at 37° C./5% CO2. […] At each time point 20 μl of CellTitre 96® AQ reagent (Promega) was then added to three separate wells per data point and the absorbance (OD490) read after 1 hour at 37° C. The CellTitre 96® AQ reagent is a water soluble MTS formazan version of the well-known MTT reagent which produces a colorimetric readout that is directly proportional to the number of viable cells present.

[2] = tested on: more advanced invasive cervical disease; conditions: cited from earlier work
[3] = tested on: pre-invasive cells derived from the cervix; conditions: cited from earlier work
glioma = conditions: ritonavir alone; cited from earlier work
CIN2 lesions = conditions: young women aged 18-29; topical, physician applied, 16 weeks; cited from earlier work
CIN2/3 = conditions: topical application; cited from earlier work
HPV infection = conditions: hybrid capture 2 assay; cited from earlier work
CIN and HPV infections = conditions: cited from earlier work

SMILES: Cc1cccc(C)c1OCC(=O)N[C@@H](Cc1ccccc1)[C@@H](O)C[C@H](Cc1ccccc1)NC(=O)[C@H](C(C)C)N1CCCNC1=O (relative stereo) [lopinavir, [1S-[1R*(R*), 3R*, 4R*]]—N-[4-[(2,6-dimethylphenoxy0acetyl]amino]-3-hydroxy-5-phenyl-1-(phenylmethyl)pentyl]tetrahydro-alpha-(1-methylethyl)-2-oxo-1 (2H)-pyrimidineacetamide]
- solubility in water [1]: virtually insoluble in water
- R4 gate Mean (percentage of cells in quadrant R4, late stage apoptosis) (HeLa cells; 48 hrs, total dose 25 μM, concentrations (μM) in the label): 21.8000%
- Mean Difference to DMSO, R4 gate (Dunnett t) (HeLa cells; 48 hrs, versus DMSO control): 15.38*
- level of apoptosis compared between treatments (FIG. 13) (HeLa cells; total dose 25 μM, R4 and R6+R4): less effective than any of the combination treatments
- Mean Difference, R4 gate (Bonferonni) (HeLa cells; versus Lop20Rit5): −13.45*

SMILES: CC(C)c1nc(CN(C)C(=O)N[C@H](C(=O)N[C@@H](Cc2ccccc2)C[C@H](O)[C@H](Cc2ccccc2)NC(=O)OCc2cncs2)C(C)C)cs1 (relative stereo) [ritonavir, 10-Hydroxy-2-methyl-5-(1-methylethl)-1-[2-(1-methylethyl)-4-thiazolyl]-3,6-dioxo-8, 11bis(phenylmethyl)-2,4,7,12-tetraazatridecan-13-oic acid, 5-thiazolylmethylester, [5S-(5R*,8R*,10R8,11R*)]]
- effect on cell growth (OD490) (SiHa cells): no effect
- efficacy against more advanced invasive cervical disease [2]: not effective
- activity against pre-invasive cells derived from the cervix [3]: has shown activity
- effect against glioma in vivo (glioma): no effect

SMILES: O=c1[nH]cc(F)c(=O)[nH]1 [5FU]
- effective against CIN2 lesions (CIN2 lesions): > 90%

SMILES: Nc1ccn(C[C@@H](CO)OCP(=O)(O)O)c(=O)n1 [Cidofovir]
- clearance of CIN (CIN2/3): ~60%
- elimination of HPV infection (HPV infection): did not eliminate HPV infection

SMILES: CC(C)Cn1cnc2c(N)nc3ccccc3c21 [Imiquimod]
- effect against CIN and HPV infections (CIN and HPV infections; before and after LEEP, treatment >8 weeks): some effect
- side effects (CIN and HPV infections; direct application to the cervix): quite severe
